{"source": "patent EP0524173B1", "about": "“SOLUBILIZATION AND PURIFICATION OF THE GASTRIN RELEASING PEPTIDE RECEPTOR” (BERLEX LABORATORIES, INC., priority 1989, dated 1991)", "key": {"GRP receptor [1]": {"target": "T1, GRP receptor (Mus musculus, UniProt P21729)", "T1 construct": "endogenous in cells; host or cells: mouse Swiss 3T3 fibroblasts (membranes; intact or solubilized with CHAPS/CHS)", "T1 sequence (P21729 whole entry)": "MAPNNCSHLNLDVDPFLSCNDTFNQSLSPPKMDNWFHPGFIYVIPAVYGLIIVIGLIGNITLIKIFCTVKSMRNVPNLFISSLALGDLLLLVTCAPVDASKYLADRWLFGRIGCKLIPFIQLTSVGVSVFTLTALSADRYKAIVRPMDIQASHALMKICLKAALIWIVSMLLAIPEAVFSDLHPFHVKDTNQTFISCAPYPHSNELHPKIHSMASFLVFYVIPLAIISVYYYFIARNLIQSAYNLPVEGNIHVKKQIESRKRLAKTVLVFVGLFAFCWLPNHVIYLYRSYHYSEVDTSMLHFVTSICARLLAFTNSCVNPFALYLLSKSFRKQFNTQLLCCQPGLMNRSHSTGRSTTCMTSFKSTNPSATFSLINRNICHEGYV", "assay": "^125I-GRP ligand binding assay, detergent solubilized Swiss 3T3 fibroblast membranes", "conditions": "for Solubilized Membranes Counts/minute Bound Measured as % of Total Added: 10 µM nucleotide added to control containing MgCl2, 0.075% CHAPS, 0.015% CHS, control 28", "description": "Swiss 3T3 fibroblast membranes, prepared in Example 1, were suspended at 15 mg protein/ml in 50 mM HEPES, pH 7.5, 1.0 mM EGTA, 100 mM NaCl, 0.25 M sucrose, 50 µg/ml leupeptin, 5 µg/ml pepstatin, 10 µg/ml aprotinin, 30 µg/ml bacitracin, and 0.5 mM phenylmethylsulfonyl fluoride. A mixture of 3-[(3cholamidopropyl) dimethylammonio]-1- propane sulfonate (CHAPS) and cholesteryl hemisuccinate (CHS) in a ratio of 10:1 was added slowly to yield a final concentration of 0.75% CHAPS. The extract was incubated at 21°C for 30 minutes, cooled to 4°C and the insoluble material was removed by centrifugation at 100,000 x gravity for 60 minutes.\nFor assays of detergent solubilized membrane extracts, the final CHAPS detergent concentration was adjusted to between 0.050% and 0.20%. The concentration of CHS was maintained at 1/5 to 1/10 the concentration of CHAPS. Samples were also prepared omitting the BSA. After incubation at 15°C for 30 minutes, samples were cooled to 0°C. Bound ligand (^125I-GRP:GRP receptor complex) was recovered by rapid filtration through polyethyleneimine treated Whatman GF/B filters, followed by four washes with 4 mls of ice cold Tris buffer (50 mM Tris/Cl, pH 7.5). The filters were counted in an Isodata 500 gamma counter.\nScatchard analysis of ^125I-GRP binding to intact and solubilized Swiss 3T3 membranes was done. One particular experiment is discussed below, where the binding parameters of the solubilized and the membrane bound form of the receptor are determined under similar conditions."}, "GRP receptor [2]": {"target": "T1, GRP receptor", "assay": "^125I-GRP ligand binding assay, intact Swiss 3T3 fibroblast membranes", "conditions": "5 µM nucleotide added to control containing MgCl2; control 28.9", "description": "For assays of detergent solubilized membrane extracts, the final CHAPS detergent concentration was adjusted to between 0.050% and 0.20%. The concentration of CHS was maintained at 1/5 to 1/10 the concentration of CHAPS. Samples were also prepared omitting the BSA. After incubation at 15°C for 30 minutes, samples were cooled to 0°C. […] The filters were counted in an Isodata 500 gamma counter.\nOne particular experiment is discussed below, where the binding parameters of the solubilized and the membrane bound form of the receptor are determined under similar conditions."}}, "note": "Where a SMILES comes first, the peptide text is derived from it. [ ]: non-standard residue; d: D form. Nle = CCCC[C@H](N)C(=O)O"}
{"compound": "3-(125Iodotyrosyl15) gastrin releasing peptide [^125I-GRP]", "values": [{"measurement": "time at which binding to the soluble receptor leveled off", "setting": "GRP receptor [1]; 15°C, remained constant for up to 2 hours", "value": "≤ 20", "unit": "min"}]}
{"compound": "Nc1ncnc2c1ncn2[C@@H]1O[C@H](COP(=O)(O)OP(=O)(O)NP(=O)(O)O)[C@@H](O)[C@H]1O", "note": "[AMPPNP]", "values": [{"measurement": "Solubilized Membranes Counts/minute Bound Measured as % of Total Added", "setting": "GRP receptor [1]", "value": 27.8, "unit": "%"}, {"measurement": "Intact Membranes Counts/minute Bound Measured as % of Total Added", "setting": "GRP receptor [2]", "value": 33.4, "unit": "%"}]}
{"compound": "Nc1ncnc2c1ncn2[C@@H]1O[C@H](COP(=O)(O)OP(=O)(O)OP(=O)(O)O)[C@@H](O)[C@H]1O", "note": "[ATP]", "values": [{"measurement": "Intact Membranes Counts/minute Bound Measured as % of Total Added", "setting": "GRP receptor [2]", "value": 29.7, "unit": "%"}]}
{"compound": "Nc1nc2c(ncn2[C@@H]2O[C@H](COP(=O)(O)OP(=O)(O)NP(=O)(O)O)[C@@H](O)[C@H]2O)c(=O)[nH]1", "note": "[GMPPNP]", "values": [{"measurement": "Solubilized Membranes Counts/minute Bound Measured as % of Total Added", "setting": "GRP receptor [1]", "value": 26.5, "unit": "%"}, {"measurement": "Intact Membranes Counts/minute Bound Measured as % of Total Added", "setting": "GRP receptor [2]", "value": 10.5, "unit": "%"}]}
{"compound": "Nc1nc2c(ncn2[C@@H]2O[C@H](COP(=O)(O)OP(=O)(O)OP(=O)(O)O)[C@@H](O)[C@H]2O)c(=O)[nH]1", "note": "[GTP]", "values": [{"measurement": "Solubilized Membranes Counts/minute Bound Measured as % of Total Added", "setting": "GRP receptor [1]", "value": 27.5, "unit": "%"}, {"measurement": "Intact Membranes Counts/minute Bound Measured as % of Total Added", "setting": "GRP receptor [2]", "value": 10.7, "unit": "%"}]}
{"compound": "CCCC[C@H](NC(=O)[C@H](CC(C)C)NC(=O)[C@H](Cc1c[nH]cn1)NC(=O)CNC(=O)[C@@H](NC(=O)[C@H](C)NC(=O)[C@H](Cc1c[nH]c2ccccc12)NC(=O)[C@H](Cc1c[nH]cn1)NC(=O)[C@H](CC(N)=O)NC(=O)CNC(=O)[C@H](CCCNC(=N)N)NC(=O)[C@@H]1CCCN1C(=O)[C@H](Cc1ccc(O)cc1)NC(=O)[C@H](CCCC)NC(=O)[C@@H](N)CCCCN)C(C)C)C(N)=O", "note": "[[Nle^14,27]GRP13-27] (H-K[Nle]YPRGNHWAVGHL[Nle]-NH2)", "values": [{"measurement": "IC50", "setting": "GRP receptor [1]; unlabeled competitor peptide", "value": 0.3, "unit": "nM"}]}
